System: skin
Assay: Safety test: skin irritation patch test of the surfactants
Format: in vivo
Details: Sample (solution) per table head; patch on 20 subjects for 24 hours, evaluated 24 hours after removing; clear erythema = positive
Protocol: As a safety test on the above trehalose-6-fatty acid esters, irritation to skin was examinaed in accordance with the following procedures.
[…] Irritaion was evaluated 24 hours after removing the patch. […] Sodium laurylphosphate used as a control is a surfactant which is usually used in shampoos, body shampoos and the like.

| SMILES | Irritation to skin, positive, % |
| --- | --- |
| CCCCCCCCCCCC(=O)OCC1OC(OC2OC(CO)C(O)C(O)C2O)C(O)C(O)C1O (stereo not shown) [6-Lauroyl-trehalose, 6-lauroyl-trehalose] | 0% |
| CCCCCCCCCCCCCCCCCC(=O)OC[C@H]1O[C@H](O[C@H]2O[C@H](CO)[C@@H](O)[C@H](O)[C@H]2O)[C@H](O)[C@@H](O)[C@@H]1O [6-Stearoyl-trehalose, 6-stearoyl-trehalose] | 0% |
| CCCCCCCCCCCCOP(=O)([O-])O.[Na+] [Monosodium lauryl phosphate, reference compound] | 0.5% |
| C=CCCCCCCCCC(=O)OCC1OC(OC2OC(CO)C(O)C(O)C2O)C(O)C(O)C1O (stereo not shown) [6-(10-Undecylenyl)-trehalose, 6-(10-undecylenyl)-trehalose] | 0% |

Source: patent US6497898B1, “Surfactant, and an emulsion-type cosmetic composition and a lipsome containing said surfactant” (Kanebo LTD, priority 1993, dated 2002)
